Measurements from patent publication EP0568307A1, “Cosmetic composition containing alpha hydroxy carboxylic acids as preservatives” (priority 1992, dated 1993).

Tests used:
Format in all cases: cell-based
[1] = tested on: one of the test organisms; assay: Challenge test, inoculations to failure, Series V (organism not stated in Table 10); conditions: 1% w/w added to oil-in-water skin cream, pH 5.5
Method: (§1) This test involved incubating under standard conditions test compositions which have been inoculated with a selected bacterium, yeast or a mixture of moulds. […] Accordingly, the higher the number of "challenges", the better is the preservative. substance in preventing or at least delaying microbial spoilage.
(§2) The method of testing was as follows: • i) Introduce aseptically 99 ml of test composition into a 250 ml flask and add 1 ml of inoculum of one of the test organisms (see above), to provide a dilution of 10⁶ cells/ml in the composition. • ii) mix and incubate at 28°C for 24 hours. • iii) remove 1 ml of incubated composition from the flask and add to it 9 ml of peptone water/Tween 80 as diluent and mix thoroughly. • iv) place 1 ml of diluted sample into a petri dish and add warm, molten agar (40°C) and mix to distribute culture uniformly and allow to set. • v) incubate plates for 3 days at 28°C and then count colonies and note log reduction of count (due to the presence of the preservative in the original culture composition).
(§3) The inoculation of the organisms originally introduced into each composition is then repeated at 24 hour intervals, following removal of the first total viable count sample, the plating out and counting procedure being repeated on each occasion. The test is terminated when the samples show a contamination level greater than 10² counts per ml on 2 consecutive days. This point is regarded as the failure point for the composition under test.
(§4) The greater the number of inoculations of contaminant organisms before this level of contamination is established in the composition, the better the preservative system.
Various preservative materials were added to samples of this base formulation. The resulting compositions were subjected to the mould challenge test, as set out in Table 10 below.

[2] = tested on: Aspergillus niger & Penicillium sp.; assay: Mould challenge test (mould spore suspension, viable count after 1, 7, 14, 28 days); conditions: pH 5.5
Method: (§5) The micro-organisms selected for this test were: • i) Pseudomonas cepacia - a gram-negative bacterium, • ii) Candida parapsilosis - a yeast, and • iii) Aspergillus niger & Penicillium sp., - a mixture of moulds.
The above procedure applies to the inoculation of the bacterium and the yeast, and this procedure was varied slightly with the mixed culture of moulds as follows: • i) two samples of each test composition (9.9 ml and 9 ml) were transferred to sterile flasks and 0.1 ml or 1 ml of a mould spore suspension (approximately 10⁸ spores per ml) was introduced into the respective samples and thoroughly mixed. The inoculated samples were incubated at 28°C for up to 28 days with 1 ml samples being aseptically removed for the total viable count as outlined above using Sabouraud's dextrose agar after 1, 7, and 28 days. • ii) "Low risk" compositions eliminate mould spores in 1 to 2 days, "medium risk" compositions take 7 to 14 days to eliminate the spores and the "high risk" compositions still have surviving mould spores after 14 days incubation.

Pseudomonas cepacia = assay: Challenge test, repeated inoculation with a bacterium until failure; conditions: Series IV, pH 5.5
Method: A test was devised to assess the ability of selected hydroxyorganic acids to preserve, against microbial spoilage, compositions according to the invention and, by way of comparison, others containing conventional chemical preservative substances.
as §1, §5, §2, §3, §4

[3] = Series V, 1% w/w added to oil-in-water skin cream
[4] = Series IV, 0.1 % w/w in water-in-oil cream
[5] = Series IV, 0.25 % w/w in water-in-oil cream
[6] = Series IV, 0.5 % w/w in water-in-oil cream
[7] = Series IV, 0.75 % w/w in water-in-oil cream
[8] = Series IV, 1 % w/w in water-in-oil cream

CCCCCCCCCCCC(=O)OCC(O)CO (stereo not shown) [Monolaurin, reference compound]
No of inoculations to failure [1]: 1
mould challenge 1% [2, 3]: ++++

CCCCCCC(O)C(=O)O (stereo not shown) [2-hydroxyoctanoic acid]
No of inoculations to failure [1]: >20
number of inoculations of bacteria to failure (Pseudomonas cepacia; 0.1 % w/w in water-in-oil cream): 4
number of inoculations of bacteria to failure (Pseudomonas cepacia; 0.25 % w/w in water-in-oil cream): 4
number of inoculations of bacteria to failure (Pseudomonas cepacia; 0.5 % w/w in water-in-oil cream): 20
number of inoculations of bacteria to failure (Pseudomonas cepacia; 0.75 % w/w in water-in-oil cream): >20
number of inoculations of bacteria to failure (Pseudomonas cepacia; 1 % w/w in water-in-oil cream): >20
mould challenge 1% [2, 4]: ++
mould challenge 10% [2, 4]: ++
mould challenge 1% [2, 5]: ++
mould challenge 10% [2, 5]: ++
mould challenge 1% [2, 6]: +
mould challenge 10% [2, 6]: ++
mould challenge 1% [2, 7]: +
mould challenge 10% [2, 7]: ++
mould challenge 1% [2, 8]: -
mould challenge 10% [2, 8]: -
mould challenge 1% [2, 3]: +

CCCCCCCCCCCC(=O)O [Lauric acid, reference compound]
No of inoculations to failure [1]: 1
mould challenge 1% [2, 3]: ++++

COCCCCCCCC=CCC(O)C(=O)O (stereo not shown) ['oxa' hydroxy acid, 2-Hydroxy-13-oxa-4-tetradecenoic acid]
preservation against the mould challenge (in words) ([2]; Series II): good preservation
